Measurements from the supplement of paper PMC10307832.

Experiments:
Assay in all cases: relative viability (nuclei count vs DMSO), 5 days (fraction); higher = more cells survive
[1] = compound: CS(=O)(=O)c1ccc(-c2cnc(N)c(C(=O)Nc3ccccc3)n2)cc1 [VE-821] + CCNC(=O)c1noc(-c2cc(C(C)C)c(O)cc2O)c1-c1ccc(CN2CCOCC2)cc1 [Luminespib] (partner 0.01 µM)
In short: (§1)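 Relative viability is defined as nuclei in treated wells over nuclei in vehicle wells. Duplicate plates were run and medians reported. Lung cancer cell lines in 1536-well plates were dosed by pin tool one day after seeding, with one drug or with a fixed anchor-drug dose plus five library-drug doses (not always all listed) in √10 steps, and nuclei were counted after 5 days.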

[2] = compound: CS(=O)(=O)c1ccc(-c2cnc(N)c(C(=O)Nc3ccccc3)n2)cc1 [VE-821] + Nc1nc2[nH]cc(CCc3ccc(C(=O)N[C@@H](CCC(=O)O)C(=O)O)cc3)c2c(=O)[nH]1 [Pemetrexed] (partner 0.2 µM)
In short: as §1

[3] = compound: CS(=O)(=O)c1ccc(C(=O)Nc2ccc(Cl)c(-c3ccccn3)c2)c(Cl)c1 [Vismodegib] + COc1cc2c(Oc3ccc(NC(=O)C4(C(=O)Nc5ccc(F)cc5)CC4)cc3F)ccnc2cc1OCCCN1CCOCC1 [Foretinib] (partner 0.25 µM)
In short: as §1

[4] = compound: N#CC[C@H](C1CCCC1)n1cc(-c2ncnc3[nH]ccc23)cn1 [Ruxolitinib] + COc1cccc2cc(-c3nc([C@H]4CC[C@H](C(=O)O)CC4)n4ncnc(N)c34)[nH]c12 [OSI-027] (partner 0.5 µM)
In short: as §1

Cell Line | relative viability ([1]; first compound 0.08 µM) | relative viability ([1]; first compound 0.253 µM) | relative viability ([1]; first compound 0.8 µM) | relative viability ([1]; first compound 2.53 µM) | relative viability ([1]; first compound 8 µM) | relative viability ([2]; first compound 0.08 µM) | relative viability ([2]; first compound 0.253 µM) | relative viability ([2]; first compound 0.8 µM) | relative viability ([2]; first compound 2.53 µM) | relative viability ([2]; first compound 8 µM) | relative viability ([3]; first compound 0.08 µM) | relative viability ([3]; first compound 0.253 µM) | relative viability ([3]; first compound 0.8 µM) | relative viability ([3]; first compound 2.53 µM) | relative viability ([3]; first compound 8 µM) | relative viability ([4]; first compound 0.08 µM) | relative viability ([4]; first compound 0.253 µM) | relative viability ([4]; first compound 0.8 µM) | relative viability ([4]; first compound 2.53 µM) | relative viability ([4]; first compound 8 µM)
RERF-LC-KJ | 1.31 | 1.06 | 1.06 | 1.18 | 0.931 | 0.495 | 0.504 | 0.46 | 0.457 | 0.376 | 0.826 | 0.848 | 0.852 | 0.85 | 0.821 | 0.56 | 0.442 | 0.685 | 0.537 | 0.536
NCI-H2009 | 1.03 | 0.974 | 0.918 | 1.09 | 0.863 | 1.03 | 1 | 1.02 | 0.851 | 0.732 | 1.23 | 1.23 | 1.29 | 1.19 | 1.23 | 0.668 | 0.609 | 0.789 | 0.54 | 0.281
NCI-H2126 | 0.908 | 0.826 | 0.807 | 0.782 | 0.469 | 0.687 | 0.585 | 0.693 | 0.475 | 0.31 | 1.19 | 1.13 | – | 1.09 | 1.15 | 0.758 | 0.664 | 0.74 | 0.794 | 0.689
NCI-H460 | 0.0302 | 0.0482 | 0.0362 | 0.0342 | 0.0308 | 0.0644 | 0.0622 | 0.0609 | 0.056 | 0.0393 | 0.948 | 0.951 | 1.04 | 0.975 | 1.08 | 0.686 | 0.575 | 0.721 | 0.583 | 0.615
SW 900 | 0.199 | 0.187 | 0.156 | 0.167 | 0.152 | 0.494 | 0.504 | 0.461 | 0.46 | 0.221 | 0.743 | 0.622 | 0.761 | 0.655 | 0.857 | 0.552 | 0.495 | 0.757 | 0.585 | 0.496
NCI-H1395 | 0.7 | 0.677 | 0.704 | 0.636 | 0.525 | 0.792 | 0.789 | 0.827 | 0.745 | 0.486 | 0.918 | 0.873 | 0.999 | 0.961 | 1.03 | 0.578 | 0.576 | 0.661 | 0.564 | 0.666
NCI-H647 | 0.257 | 0.344 | 0.168 | 0.131 | 0.158 | 0.157 | 0.139 | 0.125 | 0.0986 | 0.0738 | 1.24 | 1.22 | 1.26 | 1.02 | 1.14 | 0.73 | 0.706 | 0.797 | 0.531 | 0.595
